Assay [1] addresses T1, IRAK4 (Homo sapiens, UniProt Q9NWZ3).
T1 sequence (Q9NWZ3 1-460): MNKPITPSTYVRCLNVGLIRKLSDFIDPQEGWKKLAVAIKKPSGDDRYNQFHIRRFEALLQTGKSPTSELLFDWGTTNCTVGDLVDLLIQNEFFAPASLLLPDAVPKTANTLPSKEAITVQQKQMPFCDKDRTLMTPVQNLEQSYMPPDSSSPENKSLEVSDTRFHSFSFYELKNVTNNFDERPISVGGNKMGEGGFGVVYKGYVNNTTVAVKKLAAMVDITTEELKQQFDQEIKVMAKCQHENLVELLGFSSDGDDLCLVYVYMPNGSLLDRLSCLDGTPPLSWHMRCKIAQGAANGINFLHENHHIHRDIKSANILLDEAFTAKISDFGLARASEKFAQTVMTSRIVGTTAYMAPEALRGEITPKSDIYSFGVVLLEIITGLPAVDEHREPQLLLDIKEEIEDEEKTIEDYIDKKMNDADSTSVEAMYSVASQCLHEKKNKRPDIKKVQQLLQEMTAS
Description: IRAK4 degradation in OCI-LY10 (MSD, Meso Scale Discovery). It counts as cell-based. Details: endogenous in cells; host or cells: OCI-LY10. The conditions noted are these: OCI-LY10 cells, 24 h. Put shortly:
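OCI-LY10 cells (300,000/well) were treated with an 8-point 1:3 series (top 1 to 10 μM) for 4 to 24 h at 37 °C. IRAK4 in RIPA lysates was quantified by MSD sandwich immunoassay with two anti-IRAK4 antibodies. DC50 was fitted with a three-parameter logistic equation.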

Assay [2] concerns the target T1, IRAK4. Description: hPBMC IRAK4 degradation flow assay (monocytes). It counts as cell-based. Also noted: endogenous in cells; host or cells: human PBMCs (monocytes, CD14 positive gate). The conditions noted are these: CD14 positive monocytes, 20 h, read-out: hPBMC monocyte DC50 at 20 h. The method, boiled down:
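Thawed human PBMCs treated 20 h (or 4 h) at 37° C. with 10-point 5-fold compound dilutions, 0.1% DMSO, then fixed, methanol-permeabilized and stained for IRAK4 and lineage markers by flow, with monocytes gated CD14+. IRAK4 MFI normalized to DMSO and 10 µM control; DC50 and max degradation from 4-parameter logistic fit.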

The results in this text go back to patent publication US20250205342A1, “IRAK DEGRADERS AND USES THEREOF” (Kymera Therapeutics, Inc., priority 2022, published 2025).

Usually DC50 stands for the concentration at which degradation of the target reaches its halfway point.

On to `O=C(O)Cn1cc(NC(=O)c2cc(CCCCCCNC[C@H]3CC[C@H](n4cc(NC(=O)c5cnn6ccc(N7C[C@H]8C[C@@H]7CO8)nc56)c(C(F)F)n4)CC3)cc(-c3cccnc3)c2)ccc1=O` [Compound I-93], for which the DC50 in assay [1] and in assay [2] was over 10 µM in each case.
As for `CC(C)(O)c1cc2nn([C@H]3CC[C@H](CNCCCCCCc4cc(C(=O)Nc5ccc(=O)n(CC(=O)O)c5)cc(-c5cccnc5)c4)CC3)cc2cc1NC(=O)c1cccc(C(F)(F)F)n1` [Compound I-96], the DC50 in assay [1] and in assay [2] was over 10 µM throughout.
With `COc1cc2nn([C@H]3CC[C@H](CN4CCC(c5cncc(N6CCC[C@H](C(=O)Nc7ccc(=O)n(CC(=O)O)c7)C6)c5)CC4)CC3)cc2cc1NC(=O)c1cccc(C(F)(F)F)n1` [Compound I-10], the DC50 in assay [1] and in assay [2] was over 10 µM each time.
